Laboratory results: ChEMBL document CHEMBL3232884, “Design, synthesis, and biological evaluation of novel pyridine-bridged analogues of combretastatin-A4 as anticancer agents” (J Med Chem, 2014)
Active and inactive are the calls of the source. The calls are words filed in the database; no cut-off is given here.

Legend:
[1] = system: A549; experiment: Cytotoxicity against human A549 cells after 72 hrs by resazurin based fluorescence assay; assay type: functional, cell-based
[2] = system: HeLa; experiment: Cytotoxicity against human HeLa cells after 72 hrs by resazurin based fluorescence assay; assay type: functional, cell-based
[3] = system: MDA-MB-231; experiment: Cytotoxicity against human MDA-MB-231 cells after 72 hrs by resazurin based fluorescence assay; assay type: functional, cell-based
[4] = Plasma concentration in C57BL/6 mouse at 5 mg/kg, po after 1 hr; assay type: ADME, organism-based; design: dose 5 mg/kg, route oral
[5] = system: HeLa; experiment: Antimicrotubule activity in human HeLa cells assessed as reduction of interphase microtubule network at 1 uM after 24 hrs by indirect immunofluorescence technique; assay type: functional, cell-based
[6] = target: T1, Tubulin (Bos taurus) (UniProt Q6B856+Q862L2+Q862F3); experiment: Inhibition of bovine brain tubulin polymerization at 10 uM after 60 mins by spectrophotometric analysis
[7] = system: Chorioallantoic membrane; experiment: Antiangiogenic activity in chicken embryo chorioallantoic membrane model assessed as inhibition of bFGF/VEGF-induced new vessel growth; assay type: functional, tissue-based; conditions: Gallus gallus
[8] = target: T1, Tubulin (Bos taurus); experiment: Induction of bovine brain tubulin polymerization at 1 uM after 60 mins by spectrophotometric analysis
[9] = system: MDA-MB-231; experiment: Antimicrotubule activity in human MDA-MB-231 cells assessed as reduction of interphase microtubule network at 1 uM after 24 hrs by indirect immunofluorescence technique; assay type: functional, cell-based
[10] = target: T1, Tubulin (Bos taurus); experiment: Inhibition of bovine brain tubulin polymerization at 1 uM after 60 mins by spectrophotometric analysis
[11] = target: Tubulin (Homo sapiens) (UniProt P68371+Q9H4B7+P0DPH7+P68366+Q13509+Q71U36+P04350+Q3ZCM7+P07437+P68363+Q9BQE3+Q6PEY2+Q13885+Q9BVA1+Q9BUF5); experiment: Displacement of colchicine from tubulin (unknown origin) at 0.1 to 125 uM after 1 hr by HPLC-MS/MS analysis; assay type: protein-complex assay
[12] = system: HeLa; experiment: Cell cycle arrest in human HeLa cells assessed as accumulation at G0/G1 phase at 1 uM after 24 hrs using propidium iodide staining by flow cytometry (reference value: 61.60%); assay type: functional
[13] = Plasma concentration in C57BL/6 mouse at 5 mg/kg, po after 3 hrs; assay type: ADME, organism-based; design: dose 5 mg/kg, route oral

| Compound | IC50 ([1]; Homo sapiens, A549, 72 h) | IC50 ([2]; Homo sapiens, HeLa, 72 h) | IC50 ([3]; Homo sapiens, MDA-MB-231, 72 h) | also measured |
| --- | --- | --- | --- | --- |
| COc1ccc(-c2cccc(Br)n2)c(OC)c1 | > 50 µM | > 50 µM | > 100 µM |  |
| COc1cc(-c2ccc(-c3cc(OC)c(OC)c(OC)c3)nc2)cc(OC)c1OC | > 100 µM | 2.68 µM | 11 µM |  |
| COc1cccc(-c2cccc(-c3ccc(OC)cc3OC)n2)c1 | 0.56 µM | 0.067 µM | 9.02 µM |  |
| COc1ccc(-c2cccc(-c3cccc(OC)c3OC)n2)c(OC)c1 | > 50 µM | > 50 µM | > 50 µM |  |
| COc1ccc(-c2cccc(-c3ccc(OC)c(OC)c3)n2)cc1OC | > 50 µM | > 25 µM | > 50 µM |  |
| COc1ccc(-c2cccc(-c3ccc(OC)c(O)c3)n2)c(OC)c1 [listing 1 of 3 here] |  |  |  | IC50 ([1]; a549): 0.042 µM; IC50 ([2]; hela): 0.0026 µM; IC50 ([3]; mda-mb-231): 0.0054 µM |
| COc1ccc(-c2cccc(-c3ccc(O)cc3)n2)cc1OC | > 100 µM | 0.86 µM | > 50 µM |  |
| COc1cc(-c2cccc(-c3ccc(O)cc3)n2)cc(OC)c1OC | > 25 µM | 8 µM | 10 µM |  |
| COc1cc(-c2ccnc(-c3cc(OC)c(OC)c(OC)c3)c2)cc(OC)c1OC | 7.86 µM | 0.79 µM | 2.63 µM |  |
| COc1ccc(-c2cccc(-c3c(OC)cccc3OC)n2)c(OC)c1 | > 100 µM | > 50 µM | > 100 µM |  |
| COc1ccc(-c2cccc(-c3ccc(O)cc3)n2)cc1 | > 25 µM | > 50 µM | > 25 µM |  |
| COc1ccc(-c2cccc(-c3cc(OC)c(OC)c(OC)c3)n2)cc1 | > 50 µM | > 50 µM | > 25 µM |  |
| COc1ccc(-c2ccc(-c3ccc(OC)cc3OC)nc2)c(OC)c1 | > 100 µM | > 50 µM | > 100 µM |  |
| COc1ccc(-c2cccc(Br)n2)cc1 | 2 µM | 2 µM | 10 µM |  |
| COc1ccc(-c2cccc(-c3cc(OC)c(OC)c(OC)c3)n2)cc1OC | > 50 µM | 0.026 µM | 2.49 µM |  |
| COc1ccc(-c2cccc(-c3ccc(OC)c(O)c3)n2)c(OC)c1 [listing 2 of 3 here] | 0.044 µM | 0.0014 µM | 0.0046 µM | concentration at 1 h [4]: 9.2 ng/mL |
| COc1cc(-c2cccc(-c3cc(OC)c(OC)c(OC)c3)n2)cc(OC)c1OC | > 50 µM | 1 µM | 11 µM |  |

| Compound | IC50 ([1]; Homo sapiens, A549, 72 h) | IC50 ([2]; Homo sapiens, HeLa, 72 h) | IC50 ([3]; Homo sapiens, MDA-MB-231, 72 h) | also measured |
| --- | --- | --- | --- | --- |
| COc1ccc(-c2cccc(-c3ccc(OC)c(OC)c3)n2)c(OC)c1 | > 25 µM | > 50 µM | 13 µM |  |
| COc1cc(-c2cccc(Br)n2)cc(OC)c1OC | 9 µM | 12 µM | 6 µM |  |
| COc1ccc(-c2cccc(-c3ccc(OC)c(OC)c3)n2)cc1 | > 25 µM | > 25 µM | > 25 µM |  |
| COc1ccc(-c2cccc(-c3ccc(OC)cc3OC)n2)cc1 | 0.089 µM | 0.0038 µM | 0.0031 µM | Activity [5]: Active; inhibition [6]: inactive; growth inhibition (GI) [7]: Active; Activity [8]: Active; Activity [9]: Active; inhibition [10]: inactive |
| COc1ccc(-c2cccc(-c3ccc(OC)cc3)n2)cc1 | > 100 µM | 2 µM | 9 µM |  |
| COc1ccc(-c2cccc(Br)n2)cc1OC | > 25 µM | > 50 µM | > 25 µM |  |
| COc1cc(OC)cc(-c2cccc(-c3ccc(OC)cc3OC)n2)c1 | > 25 µM | > 50 µM | > 25 µM |  |
| COc1ccc(-c2cccc(-c3ccc(OC)cc3OC)n2)c(OC)c1 | 0.079 µM | 0.011 µM | 0.075 µM |  |
| COc1ccc(-c2cccc(-c3ccc(OC)c(O)c3)n2)c(OC)c1 [listing 3 of 3 here] |  |  |  | inhibition [11]: Active; inhibition [6]: 57%; growth inhibition (GI) [7]: Active; inhibition [10]: inactive |
| COc1ccc(-c2cccc(-c3ccc(O)cc3)n2)c(OC)c1 | 4.22 µM | > 100 µM | 17.2 µM |  |
| COc1ccc(-c2ccc(-c3cc(OC)c(OC)c(OC)c3)nc2)cc1OC | > 50 µM | > 25 µM | > 50 µM |  |
| COc1cc(-c2ccc(Br)cn2)cc(OC)c1OC | > 25 µM | 14 µM | 12.1 µM |  |
| COc1ccc(-c2cccc(-c3ccccc3OC)n2)c(OC)c1 | > 50 µM | > 25 µM | > 25 µM |  |
| COc1ccc(-c2cccc(-c3c(OC)cc(OC)cc3OC)n2)c(OC)c1 | > 50 µM | > 25 µM | > 50 µM |  |
| COc1ccc(/C=C\c2cc(OC)c(OC)c(OC)c2)cc1O [COMBRETASTATIN A4] | 0.0038 µM | 0.0009 µM | 0.0028 µM | Activity [12]: 37%; Activity [5]: Active; inhibition [6]: Active; growth inhibition (GI) [7]: Active; Activity [9]: Active; concentration at 3 h [13]: 2.1 ng/mL; inhibition [10]: 35%; concentration at 1 h [4]: 2.3 ng/mL |
| COc1ccc(-c2ccnc(-c3ccc(OC)cc3OC)c2)c(OC)c1 | > 50 µM | > 25 µM | > 50 µM |  |
